Laboratory results reported in patent US20260223850A1, “SUBSTITUTED PYRROLIDONE COMPOUND, PREPARATION METHOD THEREFOR, COMPOSITION AND APPLICATION THEREOF” (QINGDAO KINGAGROOT CHEMICAL COMPOUND CO., LTD., priority 2023, published 2026).

How the values were obtained:
[1] = test system: Echinochloa crusgalli; test: Seedling stage sealing experiment for water-seeding; assay type: in vivo; conditions: 120 g a.i./ha, seedling stage sealing, 15 days, fresh weight control rate
[2] = test system: Echinochloa phyllopogon; test: as above; assay type: in vivo; conditions: 120 g a.i./ha, seedling stage sealing, 15 days, fresh weight control rate
Procedure, shortened: (§1)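 Seeds broadcast on soil in nutrition bowls, covered, kept moist in a water-filled box; compound in acetone diluted with water and spray-tower applied at 120, 60, 30 and 15 g a.i./ha, triplicate. Scored after 15 days in greenhouse on a 0–9 scale of fresh-weight growth control, averaged.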

[3] = test system: Huaidao (rice cultivar); test: Seedling stage sealing experiment for water-seeding (crop safety); assay type: in vivo; conditions: 120 g a.i./ha, seedling stage sealing, 15 days, fresh weight control rate
Procedure, shortened: as §1

[4] = test system: Apple ring rot; test: Fungicidal activity assay, petri dish method; assay type: cell-based; conditions: 400 ppm, 25° C., after 4 days
Procedure: (§2) Petri dish method: The drug agent was dissolved with acetone, diluted with sterile water, and set to different levels of mass concentrations according to its activity. Under aseptic operation conditions, the pre-melted sterilized medium was quantitatively added into sterilized flasks according to the test treatment. The drug solutions were quantitatively aspirated in order from low to high concentrations, added into the above-mentioned flasks, and shaken well, respectively. Next, equal amounts of the solution were poured into 3 petri dishes with a diameter of 6 cm to prepare drug-containing plates with corresponding concentrations. In the test, a treatment without drugs was set up as the blank control and each treatment was repeated 3 times. A fungus cake was cut out from the edge of the colony of the cultured pathogens using a sterile hole puncher with a diameter of 3 mm under sterile conditions. The fungus cake was inoculated into the center of a drug-containing plate using an inoculator, with the mycelia facing up, covered with a plate cover, and cultured in an incubator at 25° C. The growth of pathogen mycelia was investigated according to the fungal growth in the blank control petri dishes after 4 days. The diameters of the colonies were measured with a caliper in millimeters (mm). Each colony was vertically measured for diameters once each by the cross method and then averaged. Based on the investigation results, the mycelium growth inhibition rate of each treatment concentration on the test target fungi was calculated in accordance with Equation (1) and (2). The unit was percentage (%).
(§3) [formula] • wherein: D—Increase of colony diameter; D1—Diameter of colony; D2—Diameter of fungus cake.
(§4) [formula] • wherein: I—Mycelium growth inhibition rate; D0—Increase of colony diameter of blank control; Dt—Increase of colony diameter of drug treatment.

[5] = test system: Rice sheath blight; test: Fungicidal activity assay, petri dish method; assay type: cell-based; conditions: 400 ppm, 25° C., after 4 days
Procedure: as §2, §3, §4

[6] = test system: Tomato gray mold; test: Fungicidal activity assay, petri dish method; assay type: cell-based; conditions: 400 ppm, 25° C., after 4 days
Procedure: as §2, §3, §4

## Cc1cc(C)cc([C@H]2CN(C)C(=O)[C@@H]2C(=O)Nc2cnn(C)c2Br)c1 [425′]
[1]
  Echinochloa crusgalli activity level (growth control rate): 9
[2]
  Echinochloa phyllopogon activity level (growth control rate): 9
[3]
  Huaidao (rice cultivar) plant damage level: 0
[4]
  Apple ring rot/% (mycelium growth inhibition rate): 55%
[5]
  Rice sheath blight/% (mycelium growth inhibition rate): 56%
[6]
  Tomato gray mold/% (mycelium growth inhibition rate): 68%
